Measured values taken from patent US20230405081A1, “PHARMACEUTICAL COMPOSITION COMPRISING A PEPTIDE AS ACTIVE INGREDIENT” (INTRACT PHARMA LIMITED, priority 2020, published 2023).

Experiment: in vitro
Details: human, real gastrointestinal fluid or homogenate; for remaining at 1 h, 1 mg/ml: pH 7, % Peptide remaining at 1 hours (T = 1 h)
Experimental: A human colonic model based on a mixed faecal inoculum was used to mimic the luminal environment of the human large intestine. An anaerobic workstation (Electrotek 500TG™ workstation, Electrotek, West Yorkshire, UK) maintained at 37° C. and 70% relative air humidity was used to set up the model. The fecal material was transferred in the anaerobic workstation and diluted with freshly prepared basal medium to obtain 20% w/w slurry by homogenization. The basal media provides nutrients and growth factors to the microbiota allowing viability for up to 24 hours. The homogenized bacterial media was sieved through an open mesh fabric (SefarNitex™, pore size 350 μm) to remove any nonhomogeneous fibrous material. The pH was maintained at approximately 7 to mimic the colonic luminal pH of the human.
Desmopressin stock solution was prepared in HPLC water at 2 mg/ml without or with single L-amino acids, combinations of L-amino acids or di-peptides at 10 and/or 20 and/or 40 mM concentrations and added to […] human faecal slurry; […] Samples were withdrawn at appropriate time points and added to HPLC grade methanol in a ratio of 1:1. The samples were centrifuged at […] for 10 minutes at 4° C. and the supernatant was analysed by Reversed Phase-HPLC (RP-HPLC).
Sample analysis was performed using a high performance liquid chromatography (HPLC) system (Agilent Technologies, 1260 Infinity II Series™) equipped with a pump (model G7111A), autosampler (model G7129A) and a diode-array UV detector (model G7114A). A 150×4.6-mm, 5 μm, 100 Å (Phenomenex, UK) reversed phase chromatography column was used for sample separation using 0.1% TFA in water (A) and acetonitrile (B) as the mobile phase for elution, at a flow rate of 1 ml/min. The gradient was set up with 17% of B at 0-4 minutes, 30% of B at 20 minutes and 17% of B at 20.01-23 minutes. The analysis was operated at room temperature and UV detection wavelength was set at 220 nm. Each sample was run for 23 minutes to allow complete elution of the sample without overlapping matrix interferences.
Colon stability was assessed using the Human Colon model with the amount of intact desmopressin remaining at each time point assessed by RP-HPLC as described in the Methods section.
Colon stability was assessed using the Human Colon model with the amount of intact oxytocin, oxytocin with 1 D-amino acid and linear oxytocin remaining at each time point assessed by RP-HPLC as described in the Methods section.

Compound	remaining at 1 h, 1 mg/ml [%]	% Desmopressin remaining after 1 hours (T = 1 h) (1 h, 0.1 mg/ml, pH 7) [%]	remaining at 1 h, 0.1 mg/ml (pH 7, % Desmopressin remaining after 1 hours (T = 1 h)) [%]	remaining at 0.5 h, 1 mg/ml (pH 7, % Peptide remaining at 0.5 hours (T = 0.5 h)) [%]
CC[C@H](C)[C@@H]1NC(=O)[C@H](Cc2ccc(O)cc2)NC(=O)[C@@H](N)CSSC[C@@H](C(=O)N2CCC[C@H]2C(=O)N[C@@H](CC(C)C)C(=O)NCC(N)=O)NC(=O)[C@H](CC(N)=O)NC(=O)[C@H](CCC(N)=O)NC1=O [Oxytocin]	6.6 ± 0.25			
NC(=O)CC[C@@H]1NC(=O)[C@H](Cc2ccccc2)NC(=O)[C@H](Cc2ccc(O)cc2)NC(=O)CCSSC[C@@H](C(=O)N2CCC[C@H]2C(=O)N[C@H](CCCN=C(N)N)C(=O)NCC(N)=O)NC(=O)[C@H](CC(N)=O)NC1=O [Desmopressin]		22.6 ± 2.7	28.8 ± 1.2	
CC[C@H](C)[C@H](NC(=O)[C@H](Cc1ccc(O)cc1)NC(=O)[C@@H](N)CS)C(=O)N[C@@H](CCC(N)=O)C(=O)N[C@@H](CC(N)=O)C(=O)N[C@@H](CS)C(=O)N1CCC[C@H]1C(=O)N[C@H](CC(C)C)C(=O)NCC(N)=O [Linear Oxytocin with 1 D-amino acid]	0			0
